Assays:
alpha-glucosidase = molecular target: T1, alpha-glucosidase (Saccharomyces cerevisiae, UniProt P53341); experiment: Alpha-glucosidase inhibitory activity (pNPG substrate, absorbance 405 nm); type: biochemical
T1 construct: purchased Sigma-Aldrich
Method: The organic solvents used in this study were supplied by Merck, Cape Town, South Africa. The NMR spectra were carried out on an Avance 400 MHz spectrometer (Bruker, Rheinstetten, Germany) using deuterated chloroform. Preparative HPLC was utilized for the purification of compounds using HPLC-grade methanol and distilled water.
The reaction was stopped by adding 50 μL of sodium carbonate Na2CO3 (0.1 M). […] Each experiment was repeated three times.

[1] = Trolox equivalent absorbance capacity (TEAC) assay; settings: Trolox equivalents; stock solution 1 mg/mL
Method: The TEAC assay was carried out in accordance with the method described previously. The stock solutions, which contained 7 mM of ABTS and 140 mM of K2S2O8, were prepared and kept at −2 °C. The working solution was then prepared by adding 88 μL of K2S2O8 solution to 5 mL of ABTS solution. The two solutions were mixed and allowed to react for 24 h at room temperature in the dark. Trolox was used as a standard, with concentrations ranging between 0 and 500 μM. After 24 h, the ABTS mix solution was diluted with ethanol to read a start-up absorbance (control) of approximately 2.0 (±0.1). The stock solution (1 mg/mL) of a methanol extract and purified compounds (25 μL) were allowed to react with 300 μL of ABTS in the dark at room temperature for 30 min. The absorbance was read at 734 nm at 25 °C in the plate reader. The results are expressed as μM Trolox equivalents per milligram dry weight (μM/TE/g) of the test samples.

[2] = Ferric-ion reducing antioxidant power (FRAP) assay; settings: ascorbic acid equivalents; stock solution 1 mg/mL
Method: The FRAP assay was carried out in accordance with the method described previously. In a 96-well plate, 10 μL of the stock solution (1 mg/mL w/v) of the isolated compounds (1–3) was mixed with 300 μL of FRAP reagent. The FRAP reagent was prepared by mixing (10:1:1, v/v/v) of acetate buffer (300 mM, pH 3.6), tripyridyl triazine (TPTZ) (10 mM in 40 mM HCl), and FeCl3.6H2O (20 mM). Incubation commenced at room temperature for 30 min, and the plate was read at a wavelength of 593 nm in a Multiskan spectrum plate reader (Thermo Fisher Scientific). L-Ascorbic (Sigma-Aldrich, Cape Town, South Africa) was used as a standard, with concentrations varying between 0 and 1000 μM. Further dilutions were carried out with the samples that were highly concentrated, and such dilution factors were recorded and used for calculations of the affected samples. The results are expressed as μM ascorbic acid equivalents per milligram dry weight (μM AAE/g) of the test samples.

[3] = Oxygen radical absorbance capacity (ORAC) assay; settings: Trolox equivalents; stock solution 1 mg/mL
Method: ORAC assay was conducted according to the previous method with slight modifications. The method measured the antioxidant scavenging capacity of thermal decomposition generated by peroxyl radical of 2,2-azobis (2-amino-propane) dihydrochloride (AAPH) as peroxyradical (ORACROO^.) generator. The loss of fluorescence of fluorescein (probe) was an indication of the extent of its oxidation through reaction with the peroxyl radical. The protective effect of an antioxidant was measured by assessing the fluorescence area under the curve (AUC) plot relative to that of blank in which no antioxidant was present. The analyzer was programmed to record the fluorescence of fluorescein every 2 min after AAPH was added. The fluorescein solution and sample were added in the wells of an illuminated 96-well plate, and 12 μL of each sample in a stock solution of 1 mg/mL was combined with 138 μL of a fluorescein working solution, followed by the addition of 50 μL of 150 mg of AAPH prepared in situ in 6 mL phosphate buffer. Absorbance was measured with a Fluoroskan spectrum plate reader with the excitation wavelength set as 485 nm and the emission wavelength at 530 nm. A calibration curve was used, using a Trolox stock solution of concentration in the range of 83–417 μM (R^2 = 0.9514). The ORAC values were calculated using a regression equation (Y = a + bX + Cx^2) between Trolox concentration (Y in μM) and the net area under the fluorescence decay curve (X). ORAC values are expressed as μMTE/mg of a test sample. Samples without perfect curve were further diluted, and the dilution factors were used for the calculation of such samples.

[4] = cited from earlier work

T1 sequence (P53341 whole entry): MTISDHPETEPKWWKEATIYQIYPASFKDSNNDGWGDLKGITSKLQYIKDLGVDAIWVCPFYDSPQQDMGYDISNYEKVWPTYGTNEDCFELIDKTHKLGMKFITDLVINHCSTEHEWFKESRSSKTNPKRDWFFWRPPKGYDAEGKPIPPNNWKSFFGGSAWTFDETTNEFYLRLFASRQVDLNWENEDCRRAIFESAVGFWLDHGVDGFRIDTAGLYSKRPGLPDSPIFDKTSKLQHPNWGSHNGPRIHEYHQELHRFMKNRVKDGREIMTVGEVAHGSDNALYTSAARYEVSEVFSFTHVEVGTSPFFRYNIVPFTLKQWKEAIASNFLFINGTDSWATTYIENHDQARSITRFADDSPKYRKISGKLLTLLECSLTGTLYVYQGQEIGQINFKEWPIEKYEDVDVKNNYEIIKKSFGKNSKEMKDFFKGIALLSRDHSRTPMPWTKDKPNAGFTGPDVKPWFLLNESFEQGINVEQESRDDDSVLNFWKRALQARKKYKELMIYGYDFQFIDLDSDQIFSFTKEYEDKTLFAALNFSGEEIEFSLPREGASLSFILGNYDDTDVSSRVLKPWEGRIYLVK

With `COc1cc(C(=O)OC2CC(C)(C)C3=CC=C4C=C(C(C)C)C(=O)C(O)=C4C3(C)C2)ccc1O` (centres unmarked) [Compound 3, parvifloron G] the IC50 (alpha-glucosidase) was 88.9 µM, the TEAC [1] was 3526.1 ± 0.6 µM TE/g and the FRAP [2] was 1455.4 ± 2.0 µM AAE/g.

Work on `O=C(O[C@@H]1Cc2c(O)cc(O)cc2O[C@@H]1c1cc(O)c(O)c(O)c1)c1cc(O)c(O)c(O)c1` [EGCG, epigallocatechin gallate, reference compound] yielded an ORAC [3] of 3976.82 ± 3.8 µM TE/g, a TEAC [1] of 4146.4 ± 19.8 µM TE/g and an FRAP [2] of 7524.1 ± 4.9 µM AAE/g.

For parvifloron D [Compound 1], the ORAC [3] was 3942.9 ± 7.1 µM TE/g, the TEAC [1] was 470.3 ± 2.2 µM TE/g and the FRAP [2] was 1043.9 ± 2.6 µM AAE/g. The IC50 ([4]; read-out: DPPH radical scavenging IC50) was 1300 ± 100 µM.

For parvifloron F [Compound 2], the ORAC [3] was 1726.1 ± 2.6 µM TE/g, the TEAC [1] was 1069.3 ± 2.4 µM TE/g and the FRAP [2] was 1155.5 ± 2.3 µM AAE/g. For the same compound, the EC50 ([4]; read-out: DPPH radical scavenging EC50) was 131 µM.

Source: article PMC8869333, “Alpha-Glucosidase and Alpha-Amylase Inhibitory Activities, Molecular Docking, and Antioxidant Capacities of Plectranthus ecklonii Constituents” (Antioxidants, 2022)
